These results are taken from patent US20260070945A1, “MACROCYCLIC IMMUNOMODULATORS” (Bristol-Myers Squibb Company, priority 2022, published 2026).

*1 amine or outer side, *2 acyl side, *3 side chain or, on linkers, in order; H or OH if unused. Where a SMILES comes first, the peptide text is derived from it. Bridges are numbered along the chain shown (N, C = ends). [ ]: non-standard residue; d: D form. The star is where a group is joined. ξ: configuration not given here. Phe(3-CF3) = N[C@@H](Cc1cccc(C(F)(F)F)c1)C(=O)O; Ala(morpholin-4-yl) = N[C@@H](CN1CCOCC1)C(=O)O; Phe(4-CONH2) = NC(=O)c1ccc(C[C@H](N)C(=O)O)cc1; Phe(4-COOH) = N[C@@H](Cc1ccc(C(=O)O)cc1)C(=O)O; Bip = N[C@@H](Cc1ccc(-c2ccccc2)cc1)C(=O)O; NH(CH2)14COOH = O=C(O)CCCCCCCCCCCCCCN*; Phe(3-Me) = Cc1cccc(C[C@H](N)C(=O)O)c1; γGlu = O=C(O)[C@H](CCC(=O)[*:2])N[*:1]; NH(CH2)12COOH = O=C(O)CCCCCCCCCCCCN*; NMeAEEA = CN(CCOCCOCC(=O)[*:2])[*:1]; Val(3-OH) = CC(C)(O)[C@H](N)C(=O)O; 3Thi = N[C@@H](Cc1ccsc1)C(=O)O; Cha = N[C@@H](CC1CCCCC1)C(=O)O; Cit = NC(=O)NCCC[C@H](N)C(=O)O; Ile(3ξ) = CCC(C)[C@H](N)C(=O)O; Thr(3ξ) = CC(O)[C@H](N)C(=O)O; 12Ado = NCCCCCCCCCCCC(=O)O; Carboxymethyl = O=C(O)C*; NMeA = CN[C@@H](C)C(=O)O; Aun = NCCCCCCCCCCC(=O)O; Dab = NCC[C@H](N)C(=O)O; Dap = NC[C@H](N)C(=O)O; AEEA = NCCOCCOCC(=O)O; Piv = CC(C)(C)C(=O)*; ξV = CC(C)C(N)C(=O)O

For one assay, the target named is T1, PD-1/PD-L1 interaction (PE-labeled human PD-L1-Ig binding to Jurkat cell line over-expressing human PD-1) (Homo sapiens, UniProt Q15116).
T1 construct: expressed in transfected cells; host or cells: Jurkat
T1 sequence (Q15116 25-288): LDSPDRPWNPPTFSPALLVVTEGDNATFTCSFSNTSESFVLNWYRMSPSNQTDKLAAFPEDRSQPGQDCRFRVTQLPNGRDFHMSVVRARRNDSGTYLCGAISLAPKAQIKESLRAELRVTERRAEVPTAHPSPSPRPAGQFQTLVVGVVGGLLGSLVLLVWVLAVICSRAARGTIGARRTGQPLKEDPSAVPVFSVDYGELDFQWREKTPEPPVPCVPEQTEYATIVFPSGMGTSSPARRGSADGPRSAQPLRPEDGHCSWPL
The assay is described as follows: Jurkat-PD-1 Cell Binding High-Content Screening Assay (CBA). The conditions noted are these: Jurkat-hPD-1 cells, PE-labeled PD-L1-Ig 20 nM final; read-out: Jurkat HPD1 PDL1 IC50. A digest of the protocol:
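In this imaging assay, cells in 10% FCS medium see compound for 2 h at 37 °C and then labeled ligand at 20 nM final for 1 h. Paraformaldehyde fixation, Hoechst 33342 staining and dPBS washes precede image capture.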
On to `CC(C)C[C@H]1NC(=O)[C@H](C)N(C)C(=O)[C@H](CCC(N)=O)NC(=O)[C@H](Cc2ccc(-c3ccccc3)cc2)NC(=O)[C@H](Cc2ccc(C(=O)O)cc2)NC(=O)[C@H](Cc2cccc(C(F)(F)F)c2)NC(=O)[C@H](CC(=O)O)NC(=O)[C@H](Cc2ccc(OCC(=O)O)cc2)NC(=O)[C@H](CN2CCOCC2)NC(=O)CSC[C@@H](C(=O)N[C@@H](CCN)C(=O)NCCOCCOCC(=O)N[C@@H](CCC(=O)NCCOCCOCC(=O)NCCCCCCCCCCCCC(=O)O)C(=O)O)NC(=O)[C@H](CC(=O)O)NC(=O)[C@H](C(C)(C)O)NC(=O)[C@H](CC2CCCCC2)NC(=O)[C@H](CCN)NC1=O` [Example 1171] ({CH2CO}-[Ala(morpholin-4-yl)]Y(Carboxymethyl)D[Phe(3-CF3)][Phe(4-COOH)][Bip]Q[NMeA][dL][Dab][Cha][Val(3-OH)]DC[Dab][AEEA][γGlu][AEEA]-{NH(CH2)12COOH}; thioether N-14), for which the 50% inhibitory concentration (IC50) is 41.2 nM. Same read-out and setting: next, `Cc1cccc(C[C@@H]2NC(=O)[C@H](CC(=O)O)NC(=O)[C@H](Cc3ccc(OCC(=O)O)cc3)NC(=O)[C@H](C(C)O)NC(=O)CSC[C@@H](C(=O)N(C)CCOCCOCC(=O)NCCCCCCCCCCC(=O)O)NC(=O)[C@H](CCCNC(N)=O)NC(=O)[C@H](C(C)C)NC(=O)[C@H](CC3CCCCC3)NC(=O)[C@H](CCN)NC(=O)[C@@H](CC(C)C)NC(=O)[C@H](C)N(C)C(=O)[C@H](C(C)C)NC(=O)[C@H](Cc3ccc(-c4ccccc4)cc3)NC(=O)[C@H](C(C)C)NC2=O)c1` (stereo partly drawn) [Example 2359] ({CH2CO}-[Thr(3ξ)]Y(Carboxymethyl)D[Phe(3-Me)]V[Bip]V[NMeA][dL][Dab][Cha]V[Cit]C[NMeAEEA][Aun]-OH; thioether N-14): 26.3 nM; `Cc1cccc(C[C@@H]2NC(=O)[C@H](CC(=O)O)NC(=O)[C@H](Cc3ccc(OCC(=O)O)cc3)NC(=O)[C@H](C(C)O)NC(=O)CSC[C@@H](C(=O)N[C@H](CC(N)=O)C(=O)NCCCCCCCCCCC(=O)O)NC(=O)[C@H](C(C)O)NC(=O)[C@H](C(C)C)NC(=O)[C@H](CC3CCCCC3)NC(=O)[C@H](CCN)NC(=O)[C@@H](CC(C)C)NC(=O)[C@H](C)N(C)C(=O)[C@H](CCCCNC(=O)C(C)(C)C)NC(=O)[C@H](Cc3ccc(-c4ccccc4)cc3)NC(=O)[C@H](Cc3ccc(O)cc3)NC2=O)c1` (stereo partly drawn) [Example 2452] ({CH2CO}-[Thr(3ξ)]Y(Carboxymethyl)D[Phe(3-Me)]Y[Bip]K(Piv)[NMeA][dL][Dab][Cha]V[Thr(3ξ)]C[dN][Aun]-OH; thioether N-14): 12.2 nM. For the compound `CCC(C)[C@@H]1NC(=O)[C@H](Cc2ccc(-c3ccccc3)cc2)NC(=O)[C@H](CC(C)C)NC(=O)[C@H](Cc2c[nH]c3ccccc23)NC(=O)[C@H](CC(=O)O)NC(=O)[C@H](Cc2ccc(C(=O)O)cc2)NC(=O)[C@H](Cc2ccc(OCC(=O)O)cc2)NC(=O)CSC[C@@H](C(=O)N[C@@H](CCN)C(=O)NCCOCCOCC(=O)NCCCCCCCCCCC(=O)O)NC(=O)[C@H](CO)NC(=O)[C@H](C(C)(C)O)NC(=O)[C@H](CC2CCCCC2)NC(=O)[C@H](CCN)NC(=O)[C@@H](CC(C)C)NC(=O)[C@H](C)N(C)C1=O` (stereo partly drawn) [Example 1410] ({CH2CO}-Y(Carboxymethyl)[Phe(4-COOH)]DWL[Bip][Ile(3ξ)][NMeA][dL][Dab][Cha][Val(3-OH)]SC[Dab][AEEA][Aun]-OH; thioether N-14), the concentration for half-maximal inhibition (IC50) was 16.2 nM. For the compound `Cc1cccc(C[C@@H]2NC(=O)[C@H](CC(=O)O)NC(=O)[C@H](Cc3ccc(OCC(=O)O)cc3)NC(=O)[C@H](C(C)O)NC(=O)CSC[C@@H](C(=O)N[C@@H](CCN)C(=O)NCCOCCOCC(=O)NCCCCCCCCCCC(=O)O)NC(=O)[C@H](CC(N)=O)NC(=O)[C@H](C(C)(C)O)NC(=O)[C@H](CC3CCCCC3)NC(=O)[C@H](CCN)NC(=O)[C@@H](CC(C)C)NC(=O)[C@H](C)N(C)C(=O)[C@H](Cc3ccc(OCC(=O)O)cc3)NC(=O)[C@H](Cc3ccc(-c4ccccc4)cc3)NC(=O)[C@H](Cc3ccc(C(=O)O)cc3)NC2=O)c1` (stereo partly drawn) [Example 2474] ({CH2CO}-[Thr(3ξ)]Y(Carboxymethyl)D[Phe(3-Me)][Phe(4-COOH)][Bip]Y(Carboxymethyl)[NMeA][dL][Dab][Cha][Val(3-OH)]NC[Dab][AEEA][Aun]-OH; thioether N-14), the half-inhibitory concentration (IC50) is 24.9 nM.

Turning to `Cc1cccc(C[C@@H]2NC(=O)[C@H](CC(=O)O)NC(=O)[C@H](Cc3ccc(OCC(=O)O)cc3)NC(=O)[C@H](Cc3ccc(C(N)=O)cc3)NC(=O)CSC[C@@H](C(=O)N[C@@H](CCN)C(=O)NCCCCCCCCCCC(=O)O)NC(=O)[C@H](CO)NC(=O)[C@H](C(C)C)NC(=O)[C@H](CC3CCCCC3)NC(=O)[C@H](CCN)NC(=O)[C@@H](CC(C)C)NC(=O)[C@H](C)N(C)C(=O)[C@H](Cc3ccc(O)cc3)NC(=O)[C@H](Cc3ccc(-c4ccccc4)cc3)NC(=O)[C@H](Cc3ccc(OCC(=O)O)cc3)NC2=O)c1` [Example 1277] ({CH2CO}-[Phe(4-CONH2)]Y(Carboxymethyl)D[Phe(3-Me)]Y(Carboxymethyl)[Bip]Y[NMeA][dL][Dab][Cha]VSC[Dab][Aun]-OH; thioether N-14), the IC50 is 24.6 nM.

`Cc1cccc(C[C@@H]2NC(=O)[C@H](CC(=O)O)NC(=O)[C@H](Cc3ccc(OCC(=O)O)cc3)NC(=O)[C@H](CCN)NC(=O)CSC[C@@H](C(=O)N[C@@H](CCN)C(=O)NCCCCCCCCCCC(=O)O)NC(=O)[C@H](Cc3c[nH]cn3)NC(=O)[C@H](C(C)(C)O)NC(=O)[C@H](CC3CCCCC3)NC(=O)[C@H](CCN)NC(=O)[C@@H](CC(C)C)NC(=O)[C@H](C)N(C)C(=O)[C@H](Cc3ccc(OCC(=O)O)cc3)NC(=O)[C@H](Cc3ccc(-c4ccccc4)cc3)NC(=O)[C@H](Cc3ccc(OCC(=O)O)cc3)NC2=O)c1` [Example 2483] ({CH2CO}-[Dab]Y(Carboxymethyl)D[Phe(3-Me)]Y(Carboxymethyl)[Bip]Y(Carboxymethyl)[NMeA][dL][Dab][Cha][Val(3-OH)]HC[Dab][Aun]-OH; thioether N-14): the IC50 worked out at 12.6 nM.

Consider `Cc1cccc(C[C@@H]2NC(=O)[C@H](CC(=O)O)NC(=O)[C@H](Cc3ccc(OCC(=O)O)cc3)NC(=O)[C@H](CN)NC(=O)CSC[C@@H](C(=O)N[C@@H](CCN)C(=O)NCCCCCCCCCCC(=O)O)NC(=O)[C@H]([C@@H](C)O)NC(=O)[C@H](C(C)C)NC(=O)[C@H](CC3CCCCC3)NC(=O)[C@H](CCN)NC(=O)[C@@H](CC(C)C)NC(=O)[C@H](C)N(C)C(=O)[C@H](CCCNC(N)=O)NC(=O)[C@H](Cc3ccc(-c4ccccc4)cc3)NC(=O)C(C(C)C)NC2=O)c1` (stereo partly drawn) [Example 1356] ({CH2CO}-[Dap]Y(Carboxymethyl)D[Phe(3-Me)][ξV][Bip][Cit][NMeA][dL][Dab][Cha]VTC[Dab][Aun]-OH; thioether N-14), for which the IC50 came to 14.6 nM.

Staying with this assay, now noted: PE-labeled PD-L1-Ig 20 nM final, Jurkat-hPD-1 cells; read-out: Jurkat HPD1 PDL1 IC50.
Regarding `Cc1cccc(C[C@@H]2NC(=O)[C@H](CC(=O)O)NC(=O)[C@H](Cc3ccc(OCC(=O)O)cc3)NC(=O)[C@H]([C@@H](C)O)NC(=O)CSC[C@@H](C(=O)N[C@@H](CCN)C(=O)NCCOCCOCC(=O)NCCCCCCCCCCCC(=O)O)NC(=O)[C@H](C)NC(=O)[C@H](C(C)C)NC(=O)[C@H](CC3CCCCC3)NC(=O)[C@H](CCN)NC(=O)[C@@H](CC(C)C)NC(=O)[C@H](C)N(C)C(=O)[C@H](Cc3ccc(OCC(=O)O)cc3)NC(=O)[C@H](Cc3ccc(-c4ccccc4)cc3)NC(=O)[C@H](Cc3ccc(OCC(=O)O)cc3)NC2=O)c1` [Example 2669] ({CH2CO}-TY(Carboxymethyl)D[Phe(3-Me)]Y(Carboxymethyl)[Bip]Y(Carboxymethyl)[NMeA][dL][Dab][Cha]VAC[Dab][AEEA][12Ado]-OH; thioether N-14), the IC50 was determined as 2.4 nM. In the case of `Cc1cccc(C[C@@H]2NC(=O)[C@H](CC(=O)O)NC(=O)[C@H](Cc3ccc(C(=O)O)cc3)NC(=O)[C@H](Cc3ccsc3)NC(=O)CSC[C@@H](C(=O)N[C@@H](CCN)C(=O)NCCOCCOCC(=O)NCCCCCCCCCCC(=O)O)NC(=O)[C@H](CCC(=O)O)NC(=O)[C@H](C(C)(C)O)NC(=O)[C@H](CC3CCCCC3)NC(=O)[C@H](CCN)NC(=O)[C@@H](CC(C)C)NC(=O)[C@H](C)N(C)C(=O)[C@H](Cc3ccc(OCC(=O)O)cc3)NC(=O)[C@H](Cc3ccc(-c4ccccc4)cc3)NC(=O)[C@H](Cc3ccc(OCC(=O)O)cc3)NC2=O)c1` [Example 2505] ({CH2CO}-[3Thi][Phe(4-COOH)]D[Phe(3-Me)]Y(Carboxymethyl)[Bip]Y(Carboxymethyl)[NMeA][dL][Dab][Cha][Val(3-OH)]EC[Dab][AEEA][Aun]-OH; thioether N-14), the IC50 amounted to 12.9 nM. The same measure, in the same setting: the value for `Cc1cccc(C[C@@H]2NC(=O)[C@H](CC(=O)O)NC(=O)[C@H](Cc3ccc(C(=O)O)cc3)NC(=O)[C@H](C(C)O)NC(=O)CSC[C@@H](C(=O)N[C@@H](CCN)C(=O)NCCOCCOCC(=O)NCCOCCOCC(=O)NCCOCCOCC(=O)NCCCCCCCCCCCCCCC(=O)O)NC(=O)[C@H](CCC(=O)O)NC(=O)[C@H](C(C)C)NC(=O)[C@H](CC3CCCCC3)NC(=O)[C@H](CCN)NC(=O)[C@@H](CC(C)C)NC(=O)[C@H](C)N(C)C(=O)[C@H](Cc3ccc(C(=O)O)cc3)NC(=O)[C@H](Cc3ccc(-c4ccccc4)cc3)NC(=O)[C@H](Cc3ccc(C(=O)O)cc3)NC2=O)c1` (stereo partly drawn) [Example 2539] ({CH2CO}-[Thr(3ξ)][Phe(4-COOH)]D[Phe(3-Me)][Phe(4-COOH)][Bip][Phe(4-COOH)][NMeA][dL][Dab][Cha]VEC[Dab][AEEA][AEEA][AEEA]-{NH(CH2)14COOH}; thioether N-14) was 350 nM.

What is called IC50 is the concentration that inhibits the measured activity by half.
